Here are results for ten compounds from patent US20210138090A1, “uPAR targeting peptide for use in peroperative optical imaging of invasive cancer” (FLUOGUIDE A/S, priority 2014, published 2021).

Square brackets hold non-standard residues; d marks the D form. Primed or numbered codes have the meaning given here. Peptide text beside a SMILES is read from it. * marks the point of attachment. ξ: configuration not given here. X1 = CC1(C)C(/C=C/C=C/C=C/C=C2\N(CCCCCC(=O)*)c3ccc4ccccc4c3C2(C)C)=[N+](CCCCS(=O)(=O)[O-])c2ccc3ccccc3c21; Cha = N[C@@H](CC1CCCCC1)C(=O)O; IRDye800CW′ = not defined here; ξR = N=C(N)NCCCC(N)C(=O)O; ξF = NC(Cc1ccccc1)C(=O)O; ξE = NC(CCC(=O)O)C(=O)O; ξD = NC(CC(=O)O)C(=O)O; AEEA = NCCOCCOCC(=O)O; ξS = NC(CO)C(=O)O

Data set [1] addresses purified uPAR (Homo sapiens, UniProt Q03405). The experiment in a line: binding affinity towards purified uPAR (first example).
Data set [2] deals with uPAR wt (Homo sapiens, UniProt Q03405). The experiment in a line: SPR inhibition of uPAR binding to immobilized uPA. The method, then:
(§1) Covalent immobilization of purified human prouPA^S356A—was accomplished by injecting 12.5 μg/ml protein dissolved in 10 mM sodium acetate (pH 5.0) over a CM5 chip that had been pre-activated with NHS/EDC (N-ethyl-N′-[3-[…])propyl]-carbodiimide), aiming at a surface density of >5000 resonance units (RU) corresponding to 100 fmols/mm^2. After coupling the sensorchip was deactivated with 1 M ethanolamine. Binding of purified human uPAR as analyte was measured from 4 nM to 0.25 nM at 20° C. using 10 mM HEPES, 150 mM NaCl, 3 mM EDTA (pH 7.4) containing 0.05% (v/v) surfactant P20 as running buffer at a flow rate of 50 μl/min. In between cycles the sensorchip was regenerated by two consecutive 10-μl injections of 0.1 M acetic acid/HCl (pH 2.5) in 0.5 M NaCl. The inhibition of 3-fold dilutions of the compounds in question was measured for 4 nM uPAR with identical running conditions. All experiments were performed on a BiacoreT200 instrument.
(§2) For each inhibition peptide inhibition profile of uPAR binding to immobilized uPA there has been run a preceding standard curve and all calculations are based on the that standard curve.
(§3) Surface plasmon resonance (SPR) was applied to determine the […]-value of IRDye800-AE344 on the uPAR⋅uPA interaction in solution using a Biacore 3000 instrument essentially as described. In brief; pro-uPA^S356A, which is the natural ligand for uPAR. […] The analysis was carried out by measuring vobs of a fixed uPAR concentration (2 nM) incubated with a 3-fold dilution series of IRDye800-AE344 (ranging from 0.076 nM to 1.5 μM) for 300 sec at 20° C. with a flow rate of 50 μL/min. A standard curve was measured in parallel (2-fold dilution of uPAR covering 0.06 nM to 2 nM) including one repeated concentration point at the end to validate the biological integrity of the sensor chip. Running buffer contained 10 mM HEPES, 150 mM NaCl, 3 mM EDTA and 0.05% (v/v) surfactant P20, pH 7.4. The sensor chip was regenerated with two injections of 0.1 M acetic acid, 0.5 M NaCl. The parent nonamer peptide antagonist AE105 (Asp-Cha-Phe-D-Ser-D-Arg-Tyr-Leu-Trp-Ser-OH) was analyzed in parallel as positive control and the closed uPAR^H47C-N259C was used as negative control as its uPA binding cavity cannot accommodate AE105.

In data set [3] the target is uPAR H47C-N259C (Homo sapiens, UniProt Q03405, H69C/N281C). In words: SPR inhibition of uPAR binding to immobilized uPA, constrained uPAR variant (negative control). Particulars: SPR, constrained uPAR variant, negative control; read-out: IC50 uPAR H47C-N259C. The method, then: as §1, §2
as §3, with “Running buffer contained 10 mM HEPES, 150 mM NaCl, 3 mM EDTA and 0.05% (v/v) surfactant P20, pH 7.4. The sensor chip was regenerated with two injections of 0.1 M acetic acid, 0.5 M NaCl.” left out

Data set [4] deals with U87MG tumours. The experiment in a line: optical imaging of U87MG tumour-bearing mice, IVIS Lumina XR. It is filed as in vivo. Particulars: 10 nmol i.v., 15 hr post injection; for max radiance for the tumors / tumor-to-background (TBR) ratio: IVIS Lumina XR; for tumor-to-background (TBR) ratio: n=10. As for the experimental part:
(§4) All animal experiments were performed under a protocol approved by the Animal Research Committee of the Danish Ministry of Justice. 5*10^6 U87MG cells were suspended in 200 μl PBS and inoculated on both flanks of the mouse. When the tumours reached an appropriate size the mice were imaged with AE105-Glu-Glu-ICG.
The mice were injected with 10 nmol of AE105-Glu-Glu-ICG or ICG i.v., and imaged 15 hr post injection. Before scan the mice were anaesthetized with 2% isofluran and positioned in a prone position. For imaging the IVIS Lumina XR and the acquisition software Living Image were used. The excitation filter was set to 710 nm and the emission filter was set in the ICG position. Acquisition was set to auto-settings to achieve the best acquisition as possible.
(§5) The TBR values were calculated by drawing a ROI over each tumor and place the background ROI in an area with constant background signal.

In data set [5] the test system is U87MG tumours. The experiment in a line: optical imaging of U87MG tumour-bearing mice, Fluobeam camera. The class given is in vivo. Particulars: 10 nmol i.v. As for the experimental part:
as §4
After imaging with IVIS Lumina XR the mouse was moved to a Fluobeam setup and imaged with appropriate acquisition time.
as §5

Data set [6] can be described thus: comparison of fluorescence intensity of ICG and ICG-Glu-Glu-AE105. Conditions: data not shown. The class given is physicochemical.
The subject of data set [7] is orthotopic GBM (U-87 MG-luc2 cells). In words: in vivo binding specificity in orthotopic GBM (blocking with AE120, scrambled probe). Conditions: 3 nmol, 1 h, no blocking. Also on record: species or system mice. The method, then:
The target specificity to uPAR was evaluated by two different methods: competitive blocking with the uPAR targeting peptide AE120 ((DChaFsrYLWSG)2-βAK) and IRDye800 conjugated to a scrambled peptide, AE354 (IRDye800CW-Glu-Glu-NH—CH2—CH2—O—CH2—CH2—O—CH2—CO—NH—CH2—CH2—O—CH2—CH2—O—CH2—CO-Asp-Cha-Glu-(D)Ser-(D)Arg-Tyr-Leu-Glu-Ser-OH) with similar peptide length as the active peptide. The competitive blocking dose of 1.4-2.8 mg AE120 was injected intraperitoneally 15-30 min prior to intravenous injection of 3 nmol IRDye800CW-AE344 and imaged at 1 h (n=5). The scrambled peptide was administered at 3 nmol and the animals were imaged after 1 h (n=4).
Images were analyzed and processed in ImageJ 1.52a, NIH, USA. Signal measurements were performed on the raw images generated by the Fluoptics system. Tumor signal was measured as a mean fluorescence intensity of the whole tumor and background signal was measured as the mean of a representative area with no tumor on the contralateral hemisphere. Presented pictures are contrast enhanced in ImageJ with the Contrast Enhancement (Saturated pixels: 0.3%).

Sequence of uPAR wt (Q03405 23-305 limits assumed): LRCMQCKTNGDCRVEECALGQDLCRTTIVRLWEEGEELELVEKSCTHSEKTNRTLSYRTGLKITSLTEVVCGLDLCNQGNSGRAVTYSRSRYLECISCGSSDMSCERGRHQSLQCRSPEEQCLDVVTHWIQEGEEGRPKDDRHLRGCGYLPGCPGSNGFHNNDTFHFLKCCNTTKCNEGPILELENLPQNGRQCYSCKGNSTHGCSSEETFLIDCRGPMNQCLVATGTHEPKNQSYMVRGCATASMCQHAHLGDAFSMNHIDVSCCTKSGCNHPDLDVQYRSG
Sequence of uPAR H47C-N259C (Q03405 23-305 H69C/N281C limits assumed): as the sequence (Q03405 23-305 limits assumed) above, with H47C, N259C counted along it
Sequence of purified uPAR (Q03405 23-305): as the sequence (Q03405 23-305 limits assumed) above

Regarding `CC(C)C[C@H](NC(=O)[C@H](Cc1ccc(O)cc1)NC(=O)[C@@H](CCCNC(=N)N)NC(=O)[C@@H](CO)NC(=O)[C@H](Cc1ccccc1)NC(=O)[C@H](CC1CCCCC1)NC(=O)[C@@H](N)CC(=O)O)C(=O)N[C@@H](Cc1c[nH]c2ccccc12)C(=O)N[C@@H](CO)C(=O)O` [AE105, Asp-Cha-Phe-(D)Ser-(D)Arg-Tyr-Leu-Trp-Ser-OH, reference compound], the half-inhibitory concentration (IC50) (in general, the concentration that gives 50% inhibition) in data set [1] is about 0.01 µM; in data set [2] it was 0.0078 ± 0.001 µM; in data set [3], 4.5 ± 1.5 µM.

In data set [2], `CC(C)C[C@H](NC(=O)[C@H](Cc1ccc(O)cc1)NC(=O)[C@@H](CCCNC(=N)N)NC(=O)[C@@H](CO)NC(=O)[C@H](Cc1ccccc1)NC(=O)[C@H](CC1CCCCC1)NC(=O)[C@H](CC(=O)O)NC(=O)COCCOCCNC(=O)COCCOCCNC(=O)[C@H](CCC(=O)O)NC(=O)[C@@H](N)CCC(=O)O)C(=O)N[C@@H](Cc1c[nH]c2ccccc12)C(=O)N[C@@H](CO)C(=O)O` [AE344, Glu Glu O2Oc O2Oc Asp Cha Phe D-Ser D-Arg Tyr Leu Trp Ser-OH] (H-EE[AEEA][AEEA]D[Cha]F[dS][dR]YLWS-OH; N-terminus assumed) had an IC50 of 0.0057 ± 0.0005 µM.

On to `CC(C)C[C@H](NC(=O)[C@H](Cc1ccc(O)cc1)NC(=O)[C@@H](CCCNC(=N)N)NC(=O)[C@@H](CO)NC(=O)[C@H](Cc1ccccc1)NC(=O)[C@H](CC1CCCCC1)NC(=O)[C@H](CC(=O)O)NC(=O)COCCOCCNC(=O)COCCOCCNC(=O)[C@H](CCC(=O)O)NC(=O)[C@@H](N)CCC(=O)O)C(=O)N[C@@H](Cc1c[nH]c2ccccc12)C(=O)N[C@@H](CO)C(N)=O` [AE345, Glu Glu O2Oc O2Oc Asp Cha Phe D-Ser D-Arg Tyr Leu Trp Ser-NH2] (H-EE[AEEA][AEEA]D[Cha]F[dS][dR]YLWS-NH2; N-terminus assumed), for which, in data set [2], the IC50 was 0.0318 ± 0.0015 µM.

Consider `CC(C)C[C@H](NC(=O)[C@H](Cc1ccc(O)cc1)NC(=O)[C@@H](CCCNC(=N)N)NC(=O)[C@@H](CO)NC(=O)[C@H](Cc1ccccc1)NC(=O)[C@H](CC1CCCCC1)NC(=O)[C@H](CC(=O)O)NC(=O)COCCOCCNC(=O)COCCOCCN)C(=O)N[C@@H](Cc1c[nH]c2ccccc12)C(=O)N[C@@H](CO)C(=O)O` [AE346, O2Oc O2Oc Asp Cha Phe D-Ser D-Arg Tyr Leu Trp Ser-OH] (H-[AEEA][AEEA]D[Cha]F[dS][dR]YLWS-OH; N-terminus assumed), for which the IC50 in data set [2] was 0.0161 ± 0.0009 µM.

In the case of `CC(C)C[C@H](NC(=O)[C@H](Cc1ccc(O)cc1)NC(=O)[C@@H](CCCNC(=N)N)NC(=O)[C@@H](CO)NC(=O)[C@H](Cc1ccccc1)NC(=O)[C@H](CC1CCCCC1)NC(=O)[C@H](CC(=O)O)NC(=O)COCCOCCNC(=O)[C@H](CCC(=O)O)NC(=O)[C@@H](N)CCC(=O)O)C(=O)N[C@@H](Cc1c[nH]c2ccccc12)C(=O)N[C@@H](CO)C(N)=O` [AE347, Glu Glu O2Oc Asp Cha Phe D-Ser D-Arg Tyr Leu Trp Ser-NH2] (H-EE[AEEA]D[Cha]F[dS][dR]YLWS-NH2; N-terminus assumed), the IC50 in data set [2] came to 0.0035 ± 0.0001 µM.

In data set [2], `CC(C)C[C@H](NC(=O)[C@H](Cc1ccc(O)cc1)NC(=O)[C@@H](CCCNC(=N)N)NC(=O)[C@@H](CO)NC(=O)[C@H](Cc1ccccc1)NC(=O)[C@H](CC1CCCCC1)NC(=O)[C@H](CC(=O)O)NC(=O)COCCOCCNC(=O)[C@@H](N)CCC(=O)O)C(=O)N[C@@H](Cc1c[nH]c2ccccc12)C(=O)N[C@@H](CO)C(N)=O` [AE348, Glu O2Oc Asp Cha Phe D-Ser D-Arg Tyr Leu Trp Ser-NH2] (H-E[AEEA]D[Cha]F[dS][dR]YLWS-NH2; N-terminus assumed) displayed an IC50 of 0.0067 ± 0.0002 µM.

`CC(C)C[C@H](NC(=O)[C@H](Cc1ccc(O)cc1)NC(=O)[C@@H](CCCNC(=N)N)NC(=O)[C@@H](CO)NC(=O)[C@H](Cc1ccccc1)NC(=O)[C@H](CC1CCCCC1)NC(=O)[C@H](CC(=O)O)NC(=O)[C@H](CCC(=O)O)NC(=O)[C@@H](N)CCC(=O)O)C(=O)N[C@@H](Cc1c[nH]c2ccccc12)C(=O)N[C@@H](CO)C(=O)O` [AE349, Glu Glu Asp Cha Phe D-Ser D-Arg Tyr Leu Trp Ser-OH] (H-EED[Cha]F[dS][dR]YLWS-OH; N-terminus assumed): in data set [2], the IC50 turned out to be 0.0125 ± 0.0006 µM.

With `CC1(C)C(/C=C/C=C/C=C/C=C2\N(CCCCS(=O)(=O)O)c3ccc4ccccc4c3C2(C)C)=[N+](CCCCS(=O)(=O)[O-])c2ccc3ccccc3c21` [ICG, indocyanine green, reference compound], in data set [4], the “uptake in the tumor” value is recorded as “No specific uptake”, the “max radiance for the tumors” value came to 7.51E+06±3.13E+05 radiance efficiency and the “tumor-to-background (TBR) ratio” value was determined as 1.04±0.04.

The compound `CC(C)C[C@H](NC(=O)[C@H](Cc1ccc(O)cc1)NC(=O)C(CCCNC(=N)N)NC(=O)C(CO)NC(=O)C(Cc1ccccc1)NC(=O)[C@H](CC1CCCCC1)NC(=O)C(CC(=O)O)NC(=O)C(CCC(=O)O)NC(=O)C(CCC(=O)O)NC(=O)CCCCCN1\C(=C/C=C/C=C/C=C/C2=[N+](CCCCS(=O)(=O)[O-])c3ccc4ccccc4c3C2(C)C)C(C)(C)c2c1ccc1ccccc21)C(=O)N[C@@H](Cc1c[nH]c2ccccc12)C(=O)N[C@@H](CO)C(=O)O` (stereo partly drawn) [ICG-Glu-Glu-AE105] (X1-[ξE][ξE][ξD][Cha][ξF][ξS][ξR]YLWS-OH) yielded an IC50 in data set [1] of about 0.08 µM. In data set [4], the “uptake in the tumor” value is on record as “high uptake”, the “max radiance for the tumors” value is recorded as 3.43E+08±0.34E+08 radiance efficiency and the “tumor-to-background (TBR) ratio” value was 3.52±0.167. The TBR in data set [5] is recorded as 3.58±0.29. Also, the “decrease in fluorescence intensity for the conjugated probe compared with ICG” value in data set [6] is reported as 2 fold. The same compound had an IC50 in data set [2] of 0.142 ± 0.013 µM. Besides, the IC50 in data set [3] came to 0.99 ± 0.05 µM.

With “IRDye800CW-Glu-Glu-NH—CH2—CH2—O—CH2—CH2—O—CH2—CO—NH—CH2—CH2—O—CH2—CH2—O—CH2—CO-Asp-Cha-Glu-(D)Ser-(D)Arg-Tyr-Leu-Glu-Ser-OH ({IRDye800CW′}-EE[AEEA][AEEA]D[Cha]E[dS][dR]YLES-OH) [IRDye800CW-AE354, reference compound]”, in data set [7], the TBR was determined as 3.4 and the “normalized TBR (ref: active probe)” value stood at 0.52.
